This note sets out measurements from ChEMBL document CHEMBL3244221, “Attempted inhibition of histidine decarboxylase with beta-alkyl analogues of histidine” (J Med Chem, 1977).

The target in assay [1] is T1, Histidine decarboxylase (Rattus norvegicus) (UniProt P16453).
T1 sequence (whole entry): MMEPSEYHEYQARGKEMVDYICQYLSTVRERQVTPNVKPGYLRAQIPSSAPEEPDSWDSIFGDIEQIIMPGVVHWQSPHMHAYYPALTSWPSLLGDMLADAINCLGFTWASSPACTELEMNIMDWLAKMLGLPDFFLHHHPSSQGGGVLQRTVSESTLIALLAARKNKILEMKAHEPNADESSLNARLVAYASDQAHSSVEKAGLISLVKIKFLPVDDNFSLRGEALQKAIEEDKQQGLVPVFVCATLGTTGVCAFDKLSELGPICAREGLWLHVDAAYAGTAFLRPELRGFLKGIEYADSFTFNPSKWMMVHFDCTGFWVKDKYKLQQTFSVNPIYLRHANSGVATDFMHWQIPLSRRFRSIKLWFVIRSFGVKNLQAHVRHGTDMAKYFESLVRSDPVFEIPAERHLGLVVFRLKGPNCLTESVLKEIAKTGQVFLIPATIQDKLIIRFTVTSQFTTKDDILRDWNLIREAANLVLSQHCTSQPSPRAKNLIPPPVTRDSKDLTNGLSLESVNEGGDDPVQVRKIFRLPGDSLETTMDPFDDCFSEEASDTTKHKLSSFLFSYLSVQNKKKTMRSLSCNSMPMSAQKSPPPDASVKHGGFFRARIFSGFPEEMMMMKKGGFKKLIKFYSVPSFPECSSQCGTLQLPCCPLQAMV
In words: Inhibition of histidine decarboxylase in Sprague-Dawley rat stomach using L-histidine-carboxyl-[14C] as substrate at 1 X 10^-4 M after 30 mins by scintillation counting analysis.

For assay [2], the target named is T1, Histidine decarboxylase (Rattus norvegicus). In words: Inhibition of histidine decarboxylase in Sprague-Dawley rat stomach using L-histidine-carboxyl-[14C] as substrate at 4 X 10^-6 M after 30 mins by scintillation counting analysis relative to control.

Each structure is given as a SMILES string. The source made the active and inactive calls. The rule behind the calls is not given here.

As for `CC(c1c[nH]cn1)C(N)C(=O)O` (configuration not stated), the inhibition result in assay [1] is “inactive”.
As to `COC(=O)C(N)C(C)c1c[nH]cn1` (mixture of isomers), the inhibition entry in assay [1] was “inactive”. The inhibition in assay [2] was 50%.
As to `CCC(c1c[nH]cn1)C(N)C(=O)O` (mixture of isomers), the inhibition entry in assay [1] was “inactive”.
For `CCC(c1c[nH]cn1)C(N)C(=O)OC` (mixture of isomers), the inhibition entry in assay [1] was “inactive”. Moreover, the inhibition in assay [2] turned out to be 50%.
As for `CCCCCCC(c1c[nH]cn1)C(N)C(=O)O` (mixture of isomers), in assay [1], the inhibition entry is “inactive”.
